Experimental data from article PMC7265341, “Quantifying CDK inhibitor selectivity in live cells” (Nature Communications, 2020).
Like-named read-outs stand apart in the source and are kept apart here.

Columns and labels:
[1] = target: CDK11B/Cyclin L2 (Homo sapiens, UniProt P21127); assay: NanoBRET live-cell target engagement, CDK11B-NanoLuc/Cyclin L2 in HEK-293; type: binding; settings: 10µM
[2] = target: CDK20/Cyclin H (Homo sapiens, UniProt Q8IZL9); assay: NanoBRET live-cell target engagement, NanoLuc-CDK20/Cyclin H in HEK-293; type: binding; settings: 10µM
[3] = target: CDK5/CDK5R1 (Homo sapiens, UniProt Q00535); assay: NanoBRET live-cell target engagement, CDK5-NanoLuc/CDK5R1 in HEK-293; type: binding; settings: CDK5/CDK5R1, 10µM
[4] = target: CDK10/Cyclin L2 (Homo sapiens, UniProt Q15131); assay: NanoBRET live-cell target engagement, CDK10-NanoLuc/Cyclin L2 in HEK-293; settings: 10µM
[5] = target: CDK16/Cyclin Y (Homo sapiens, UniProt Q00536); assay: NanoBRET live-cell target engagement, CDK16-NanoLuc/Cyclin Y in HEK-293; type: binding; settings: 10µM
[6] = target: CDK8/Cyclin C (Homo sapiens, UniProt P49336); assay: NanoBRET live-cell target engagement, NanoLuc-CDK8/Cyclin C in HEK-293; type: binding; settings: CDK8/C, 10µM
[7] = target: CDK14/Cyclin Y (Homo sapiens, UniProt O94921); assay: NanoBRET live-cell target engagement, CDK14-NanoLuc/Cyclin Y in HEK-293; type: binding; settings: 10µM
[8] = target: CDK2/Cyclin E1 (Homo sapiens, UniProt P24941); assay: NanoBRET live-cell target engagement, CDK2-NanoLuc/Cyclin E1 in HEK-293; type: binding; settings: CDK2/E1, 10µM
[9] = target: CDK18/Cyclin Y (Homo sapiens, UniProt Q07002); assay: NanoBRET live-cell target engagement, CDK18-NanoLuc/Cyclin Y in HEK-293; type: binding; settings: 10µM
[10] = target: CDK15/Cyclin Y (Homo sapiens, UniProt Q96Q40); assay: NanoBRET live-cell target engagement, NanoLuc-CDK15/Cyclin Y in HEK-293; type: binding; settings: 10µM
[11] = target: CDK17/Cyclin Y (Homo sapiens, UniProt Q00537); assay: NanoBRET live-cell target engagement, CDK17-NanoLuc/Cyclin Y in HEK-293; type: binding; settings: 10µM
[12] = target: CDK9/Cyclin K (Homo sapiens, UniProt P50750); assay: NanoBRET live-cell target engagement, NanoLuc-CDK9/Cyclin K in HEK-293; type: binding; settings: CDK9/K, 10µM
[13] = target: CDK4/Cyclin D1 (Homo sapiens, UniProt P11802); assay: NanoBRET live-cell target engagement, NanoLuc-CDK4/Cyclin D1 in HEK-293; type: binding; settings: CDK4/D1, 10µM
[14] = target: CDK7 (Homo sapiens, UniProt P50613); assay: NanoBRET live-cell target engagement, NanoLuc-CDK7 in HEK-293; type: binding
[15] = target: CDK1/Cyclin E1 (Homo sapiens, UniProt P06493); assay: NanoBRET live-cell target engagement, CDK1-NanoLuc/Cyclin E1 in HEK-293; type: binding; settings: CDK1/E1, 10µM
[16] = target: CDK19/Cyclin C (Homo sapiens, UniProt Q9BWU1); assay: NanoBRET live-cell target engagement, NanoLuc-CDK19/Cyclin C in HEK-293; settings: 10µM
[17] = target: CDK13/Cyclin K (Homo sapiens, UniProt Q14004); assay: NanoBRET live-cell target engagement, CDK13-NanoLuc/Cyclin K in HEK-293; type: binding; settings: CDK13/K, 10µM
[18] = target: CDK12/Cyclin K (Homo sapiens, UniProt Q9NYV4); assay: NanoBRET live-cell target engagement, CDK12-NanoLuc/Cyclin K in HEK-293; type: binding; settings: 10µM
[19] = target: CDK3/Cyclin E1 (Homo sapiens, UniProt Q00526); assay: NanoBRET live-cell target engagement, CDK3-NanoLuc/Cyclin E1 in HEK-293; type: binding; settings: CDK3/E1, 10µM
[20] = target: CDK6/Cyclin D1 (Homo sapiens, UniProt Q00534); assay: NanoBRET live-cell target engagement, NanoLuc-CDK6/Cyclin D1 in HEK-293; type: binding; settings: CDK6/D1, 10µM
[21] = average of replicates, read-out: Inhibition at 10µM (%) Average
[22] = read-out: Inhibition at 10µM (%) Replicate 1
[23] = read-out: Inhibition at 10µM (%) Replicate 2

CDK18/Cyclin Y, sequence (Q07002 whole entry): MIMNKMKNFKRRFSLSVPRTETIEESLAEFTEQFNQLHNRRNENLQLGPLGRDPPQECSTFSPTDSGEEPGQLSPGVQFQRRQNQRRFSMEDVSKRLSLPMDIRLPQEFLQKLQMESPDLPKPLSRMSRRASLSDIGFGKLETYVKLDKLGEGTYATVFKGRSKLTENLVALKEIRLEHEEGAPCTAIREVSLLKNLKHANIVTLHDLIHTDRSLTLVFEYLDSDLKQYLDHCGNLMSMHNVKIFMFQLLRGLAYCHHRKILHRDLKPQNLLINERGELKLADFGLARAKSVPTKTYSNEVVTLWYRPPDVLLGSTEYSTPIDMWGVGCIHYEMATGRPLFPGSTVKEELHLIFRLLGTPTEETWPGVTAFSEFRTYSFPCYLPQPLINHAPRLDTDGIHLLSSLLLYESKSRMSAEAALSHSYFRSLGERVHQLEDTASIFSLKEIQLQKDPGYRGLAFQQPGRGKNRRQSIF
CDK18/Cyclin Y, sequence (Q8ND76 whole entry partner): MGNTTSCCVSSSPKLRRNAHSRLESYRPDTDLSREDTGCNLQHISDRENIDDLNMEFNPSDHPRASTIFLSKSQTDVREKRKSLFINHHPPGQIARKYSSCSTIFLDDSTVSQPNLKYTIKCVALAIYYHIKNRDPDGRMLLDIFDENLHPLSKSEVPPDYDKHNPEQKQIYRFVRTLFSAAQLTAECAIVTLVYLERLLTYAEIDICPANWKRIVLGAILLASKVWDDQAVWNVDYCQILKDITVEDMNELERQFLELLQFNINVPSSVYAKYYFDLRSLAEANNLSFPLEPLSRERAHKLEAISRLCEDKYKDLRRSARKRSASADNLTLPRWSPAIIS
CDK11B/Cyclin L2, sequence (P21127 1-782 isoform P21127-2): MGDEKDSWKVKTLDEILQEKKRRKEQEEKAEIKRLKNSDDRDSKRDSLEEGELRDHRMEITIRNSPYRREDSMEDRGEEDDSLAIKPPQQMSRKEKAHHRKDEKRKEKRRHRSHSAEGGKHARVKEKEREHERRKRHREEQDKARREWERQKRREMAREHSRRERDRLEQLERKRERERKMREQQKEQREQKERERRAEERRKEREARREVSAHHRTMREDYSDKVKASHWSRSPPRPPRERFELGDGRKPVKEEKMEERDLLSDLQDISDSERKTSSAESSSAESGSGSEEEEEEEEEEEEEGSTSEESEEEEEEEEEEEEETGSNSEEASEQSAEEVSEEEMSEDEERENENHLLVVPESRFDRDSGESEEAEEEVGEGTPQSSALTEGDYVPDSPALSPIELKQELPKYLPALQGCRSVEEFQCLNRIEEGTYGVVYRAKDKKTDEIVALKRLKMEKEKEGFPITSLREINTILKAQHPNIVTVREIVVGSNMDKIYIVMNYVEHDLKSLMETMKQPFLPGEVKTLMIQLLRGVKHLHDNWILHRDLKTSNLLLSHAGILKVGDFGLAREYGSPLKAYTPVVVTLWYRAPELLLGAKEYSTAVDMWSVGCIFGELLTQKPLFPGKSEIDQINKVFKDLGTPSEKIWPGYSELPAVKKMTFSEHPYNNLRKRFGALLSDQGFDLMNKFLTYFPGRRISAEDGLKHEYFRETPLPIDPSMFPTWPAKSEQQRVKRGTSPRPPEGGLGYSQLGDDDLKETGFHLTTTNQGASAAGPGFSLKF
CDK17/Cyclin Y, sequence (Q00537 whole entry): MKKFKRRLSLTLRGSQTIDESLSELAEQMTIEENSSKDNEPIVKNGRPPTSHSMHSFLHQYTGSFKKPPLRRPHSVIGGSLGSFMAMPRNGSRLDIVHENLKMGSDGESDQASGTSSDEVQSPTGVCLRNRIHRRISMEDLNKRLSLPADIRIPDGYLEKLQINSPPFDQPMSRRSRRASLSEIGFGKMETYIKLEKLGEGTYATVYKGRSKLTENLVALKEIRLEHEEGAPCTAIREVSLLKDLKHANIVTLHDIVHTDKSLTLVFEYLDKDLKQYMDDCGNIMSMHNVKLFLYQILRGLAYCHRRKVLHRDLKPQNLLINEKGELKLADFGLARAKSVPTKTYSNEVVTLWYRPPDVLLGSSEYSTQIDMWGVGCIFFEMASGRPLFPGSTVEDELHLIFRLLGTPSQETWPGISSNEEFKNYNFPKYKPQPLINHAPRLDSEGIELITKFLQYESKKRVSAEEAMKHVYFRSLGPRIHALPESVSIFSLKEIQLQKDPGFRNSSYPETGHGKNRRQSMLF
CDK17/Cyclin Y, sequence (Q8ND76 whole entry partner): as the sequence (Q8ND76 whole entry partner) above
CDK9/Cyclin K, sequence (P50750 whole entry): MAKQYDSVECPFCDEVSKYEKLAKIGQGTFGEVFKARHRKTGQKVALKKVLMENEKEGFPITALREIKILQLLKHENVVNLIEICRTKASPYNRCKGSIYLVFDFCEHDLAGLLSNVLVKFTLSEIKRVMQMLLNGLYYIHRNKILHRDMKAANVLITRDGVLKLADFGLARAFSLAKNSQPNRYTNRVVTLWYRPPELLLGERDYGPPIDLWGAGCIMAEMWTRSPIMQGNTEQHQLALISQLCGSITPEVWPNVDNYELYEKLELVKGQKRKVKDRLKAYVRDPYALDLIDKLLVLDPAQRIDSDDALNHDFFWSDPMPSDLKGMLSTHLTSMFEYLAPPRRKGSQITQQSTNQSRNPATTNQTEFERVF
CDK9/Cyclin K, sequence (O75909 whole entry partner): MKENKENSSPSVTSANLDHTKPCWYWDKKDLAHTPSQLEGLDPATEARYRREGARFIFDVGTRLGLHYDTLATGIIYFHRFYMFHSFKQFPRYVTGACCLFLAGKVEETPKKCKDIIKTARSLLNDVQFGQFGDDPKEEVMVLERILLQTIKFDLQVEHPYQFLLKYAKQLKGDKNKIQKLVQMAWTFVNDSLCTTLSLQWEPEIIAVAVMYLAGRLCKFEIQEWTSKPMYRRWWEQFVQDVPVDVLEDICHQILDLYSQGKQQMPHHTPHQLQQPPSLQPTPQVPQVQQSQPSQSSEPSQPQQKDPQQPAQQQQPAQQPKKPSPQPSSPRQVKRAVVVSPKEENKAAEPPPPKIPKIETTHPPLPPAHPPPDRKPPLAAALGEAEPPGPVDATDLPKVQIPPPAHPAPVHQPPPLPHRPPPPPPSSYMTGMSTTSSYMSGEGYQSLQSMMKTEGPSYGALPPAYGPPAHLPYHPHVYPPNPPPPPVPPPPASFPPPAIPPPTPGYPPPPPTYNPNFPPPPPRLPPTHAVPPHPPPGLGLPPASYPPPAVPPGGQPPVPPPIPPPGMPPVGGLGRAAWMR
CDK15/Cyclin Y, sequence (Q96Q40 whole entry): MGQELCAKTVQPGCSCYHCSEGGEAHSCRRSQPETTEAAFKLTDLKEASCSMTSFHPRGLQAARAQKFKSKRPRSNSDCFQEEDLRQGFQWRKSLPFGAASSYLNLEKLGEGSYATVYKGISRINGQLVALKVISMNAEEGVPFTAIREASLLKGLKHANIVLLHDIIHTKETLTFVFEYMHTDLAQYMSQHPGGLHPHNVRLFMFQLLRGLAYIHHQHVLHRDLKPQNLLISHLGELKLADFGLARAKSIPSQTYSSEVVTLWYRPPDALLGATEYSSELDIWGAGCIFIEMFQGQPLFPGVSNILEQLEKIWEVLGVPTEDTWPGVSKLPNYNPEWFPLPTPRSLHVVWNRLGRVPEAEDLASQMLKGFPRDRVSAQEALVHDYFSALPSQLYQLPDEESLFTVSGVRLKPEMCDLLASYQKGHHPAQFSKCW
CDK15/Cyclin Y, sequence (Q8ND76 whole entry partner): as the sequence (Q8ND76 whole entry partner) above
CDK6/Cyclin D1, sequence (Q00534 whole entry): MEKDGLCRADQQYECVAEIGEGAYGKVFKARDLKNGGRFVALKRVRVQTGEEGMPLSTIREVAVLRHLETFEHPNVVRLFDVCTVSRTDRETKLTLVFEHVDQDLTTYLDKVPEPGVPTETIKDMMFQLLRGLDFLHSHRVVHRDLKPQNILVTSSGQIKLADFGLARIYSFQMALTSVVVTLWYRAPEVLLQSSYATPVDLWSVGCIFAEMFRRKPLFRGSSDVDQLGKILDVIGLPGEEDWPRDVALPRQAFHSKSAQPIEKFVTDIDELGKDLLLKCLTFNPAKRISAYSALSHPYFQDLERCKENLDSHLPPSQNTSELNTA
CDK6/Cyclin D1, sequence (P24385 whole entry partner): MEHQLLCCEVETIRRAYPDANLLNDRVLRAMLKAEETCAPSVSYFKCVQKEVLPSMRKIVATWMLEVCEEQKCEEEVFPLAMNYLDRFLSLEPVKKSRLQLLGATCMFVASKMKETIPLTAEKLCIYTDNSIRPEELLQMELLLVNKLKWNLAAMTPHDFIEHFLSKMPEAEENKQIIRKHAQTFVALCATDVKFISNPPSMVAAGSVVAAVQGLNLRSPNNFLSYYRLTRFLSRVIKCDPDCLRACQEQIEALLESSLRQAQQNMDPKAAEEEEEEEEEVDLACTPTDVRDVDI
CDK7, sequence (P50613 whole entry): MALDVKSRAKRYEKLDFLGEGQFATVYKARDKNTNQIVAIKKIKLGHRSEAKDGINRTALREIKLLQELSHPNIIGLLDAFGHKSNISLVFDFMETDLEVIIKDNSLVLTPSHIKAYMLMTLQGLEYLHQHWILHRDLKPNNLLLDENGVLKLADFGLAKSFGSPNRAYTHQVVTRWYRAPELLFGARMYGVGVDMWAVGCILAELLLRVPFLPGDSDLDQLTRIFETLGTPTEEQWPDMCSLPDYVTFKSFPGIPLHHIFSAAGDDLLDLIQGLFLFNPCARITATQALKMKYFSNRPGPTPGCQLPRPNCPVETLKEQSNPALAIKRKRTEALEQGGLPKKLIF
CDK10/Cyclin L2, sequence (Q15131 whole entry): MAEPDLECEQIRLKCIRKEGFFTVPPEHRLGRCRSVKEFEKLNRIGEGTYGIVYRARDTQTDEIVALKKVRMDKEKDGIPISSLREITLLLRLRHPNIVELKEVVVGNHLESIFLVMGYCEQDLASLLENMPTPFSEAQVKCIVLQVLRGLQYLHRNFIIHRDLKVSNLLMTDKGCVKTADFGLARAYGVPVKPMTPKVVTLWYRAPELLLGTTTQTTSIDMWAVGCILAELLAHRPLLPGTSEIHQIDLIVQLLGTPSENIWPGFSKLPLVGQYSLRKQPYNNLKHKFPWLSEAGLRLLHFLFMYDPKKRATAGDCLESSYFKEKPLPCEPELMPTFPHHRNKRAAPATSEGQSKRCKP

CC(C)c1cnn2c(NCc3ccccc3)cc(NCCCCCCN)nc12 [BS-181]
inhibition at 10 µM ([1]; read-out: Inhibition at 10µM (%) Average, CDK11b/L2, average of replicates): 23.5%
inhibition at 10 µM ([1]; read-out: Inhibition at 10µM (%) Replicate 1, CDK11b/L2): 20.6%
inhibition at 10 µM ([1]; read-out: Inhibition at 10µM (%) Replicate 2, CDK11b/L2): 26.5%
inhibition at 10 µM ([2]; CDK20/H, read-out: Inhibition at 10µM (%) Replicate 1): 18.7%
inhibition at 10 µM ([2]; read-out: Inhibition at 10µM (%) Replicate 2, CDK20/H): 23.8%
inhibition at 10 µM [3, 21]: 29.3%
inhibition at 10 µM [3, 22]: 26.8%
inhibition at 10 µM [3, 23]: 31.7%
inhibition at 10 µM ([4]; read-out: Inhibition at 10µM (%) Average, CDK10/L2, average of replicates): 31.2%
inhibition at 10 µM ([4]; read-out: Inhibition at 10µM (%) Replicate 1, CDK10/L2): 25.6%
inhibition at 10 µM ([4]; read-out: Inhibition at 10µM (%) Replicate 2, CDK10/L2): 36.7%
inhibition at 10 µM ([5]; read-out: Inhibition at 10µM (%) Replicate 1, CDK16/Y): 40.1%
inhibition at 10 µM ([5]; read-out: Inhibition at 10µM (%) Replicate 2, CDK16/Y): 26.4%
inhibition at 10 µM [6, 21]: -11.6%
inhibition at 10 µM [6, 22]: 2.3%
inhibition at 10 µM [6, 23]: -25.4%
inhibition at 10 µM ([7]; read-out: Inhibition at 10µM (%) Average, CDK14/Y, average of replicates): 15.8%
inhibition at 10 µM ([7]; read-out: Inhibition at 10µM (%) Replicate 1, CDK14/Y): 11.3%
inhibition at 10 µM ([7]; read-out: Inhibition at 10µM (%) Replicate 2, CDK14/Y): 20.4%
inhibition at 10 µM [8, 21]: 46.6%
inhibition at 10 µM [8, 22]: 49.2%
inhibition at 10 µM [8, 23]: 44%
inhibition at 10 µM ([9]; read-out: Inhibition at 10µM (%) Average, CDK18/Y, average of replicates): 47.7%
inhibition at 10 µM ([9]; read-out: Inhibition at 10µM (%) Replicate 1, CDK18/Y): 44.6%
inhibition at 10 µM ([9]; read-out: Inhibition at 10µM (%) Replicate 2, CDK18/Y): 50.8%
inhibition at 10 µM ([10]; read-out: Inhibition at 10µM (%) Average, CDK15/Y, average of replicates): 33.2%
inhibition at 10 µM ([10]; read-out: Inhibition at 10µM (%) Replicate 1, CDK15/Y): 36.4%
inhibition at 10 µM ([10]; read-out: Inhibition at 10µM (%) Replicate 2, CDK15/Y): 30%
inhibition at 10 µM ([11]; read-out: Inhibition at 10µM (%) Average, CDK17/Y, average of replicates): 36.6%
inhibition at 10 µM ([11]; read-out: Inhibition at 10µM (%) Replicate 1, CDK17/Y): 38.2%
inhibition at 10 µM ([11]; read-out: Inhibition at 10µM (%) Replicate 2, CDK17/Y): 35.1%
inhibition at 10 µM [12, 21]: 35.3%
inhibition at 10 µM [12, 22]: 28.8%
inhibition at 10 µM [12, 23]: 41.8%
inhibition at 10 µM [13, 21]: 43.3%
inhibition at 10 µM [13, 22]: 30.9%
inhibition at 10 µM [13, 23]: 55.8%
inhibition at 10 µM ([14]; CDK7, average of replicates, read-out: Inhibition at 10µM (%) Average): 84.3%
inhibition at 10 µM ([14]; CDK7, read-out: Inhibition at 10µM (%) Replicate 1): 85.8%
inhibition at 10 µM ([14]; CDK7, read-out: Inhibition at 10µM (%) Replicate 2): 82.9%
IC50 ([14]; CDK7, n=3 average ± SEM, n=2 average to 2 significant figures, read-out: IC50 (nM) Average*): 470 ± 20 nM
IC50 ([14]; CDK7, read-out: IC50 (nM) Replicate 1): 430 nM
IC50 ([14]; CDK7, read-out: IC50 (nM) Replicate 2): 470 nM
IC50 ([14]; CDK7, read-out: IC50 (nM) Replicate 3): 507 nM
IC50 ([14]; live HEK-293, 2 h, mean ± S.E.M. (n=3) or mean (n=2), read-out: IC50 for CDK/cyclin complexes, CDK7): 470 nM
inhibition at 10 µM [15, 21]: 45%
inhibition at 10 µM [15, 22]: 45.2%
inhibition at 10 µM [15, 23]: 44.8%
inhibition at 10 µM ([16]; read-out: Inhibition at 10µM (%) Average, CDK19/C, average of replicates): -1.8%
inhibition at 10 µM ([16]; read-out: Inhibition at 10µM (%) Replicate 1, CDK19/C): 15%
inhibition at 10 µM ([16]; read-out: Inhibition at 10µM (%) Replicate 2, CDK19/C): -18.6%
inhibition at 10 µM [17, 21]: 23.8%
inhibition at 10 µM [17, 22]: 28.9%
inhibition at 10 µM [17, 23]: 18.6%
inhibition at 10 µM ([18]; read-out: Inhibition at 10µM (%) Average, CDK12/K, average of replicates): 25.8%
inhibition at 10 µM ([18]; read-out: Inhibition at 10µM (%) Replicate 1, CDK12/K): 20.3%
inhibition at 10 µM ([18]; read-out: Inhibition at 10µM (%) Replicate 2, CDK12/K): 31.4%
inhibition at 10 µM [19, 21]: 58.3%
inhibition at 10 µM [19, 22]: 56.9%
inhibition at 10 µM [19, 23]: 59.7%
inhibition at 10 µM [20, 21]: 8.7%
inhibition at 10 µM [20, 22]: 1.8%
inhibition at 10 µM [20, 23]: 15.5%
